According to patent US10011627B2, “C-aryl glucoside derivative, preparation methods thereof, and medical applications thereof” (YOUNGENE THERAPEUTICS CO., LTD, priority 2013, dated 2018):

Assays:
SGLT2 = SGLT2 (Homo sapiens (Human), UniProt P31639); assay: Activity assay of SGLT2: [14C] methyl α-D-glucopyranoside uptake in SGLT2 transiently transferred HEK293 cells; assay type: cell-based; conditions: 2 hours at 37° C.
Experimental: (§1) Activity Assay of SGLT1 and SGLT2:
(§2) The following method was used to determine the inhibitory activity of the compounds of the present invention on SGLT1 and SGLT2. The experimental method is summarized as follows:
(§3) SGLT1 and SGLT2 transiently transferred HEK293 cells (prepared according to the existing literature “Diabetes, 57, 1723-1729, 2008”, wherein cDNA of SGLT1 and SGLT2 was purchased from Origene company) were seeded in a 96-well plate. The density of the cells was 1-1.5×10^4. The cells were cultured at 37° C. and 5% CO2 for 48 hours, and then washed twice with 200 μL sodium-free buffer. 90 μL sodium-containing buffer of the test compound at different concentrations was added to the well. Each test compound was repeated in three wells for each concentration. The cells were cultured at 37° C. for 15 minutes, then 10 μL (in number 0.1 μCi [^14C]) Methyl α-D-glucopyranoside was added to each well of the 96-well plate. The cells were further cultured at 37° C. for 2 hours, then the supernatant was discarded. The cells were washed twice with pre-chilled sodium-free buffer and then dissolved in 100 μL NaOH (200 mM). 100 μL scintillation solution was added, and mixed well. Scintiloscope was used for the quantitative detection of ^14C.
(§4) IC50 values of the compounds of various examples were calculated from the […] at different concentrations.

SGLT1 = SGLT1 (Homo sapiens (Human), UniProt P13866); assay: Activity assay of SGLT1: [14C] methyl α-D-glucopyranoside uptake in SGLT1 transiently transferred HEK293 cells; assay type: cell-based; conditions: for IC50: SGLT1 transiently transferred HEK293 cells, [14C] methyl α-D-glucopyranoside, 2 hours at 37° C.; for inhibition of SGLT1 (conclusion in words): conclusion from the IC50 table
Chain of SGLT1 (P13866 whole entry, species assumed): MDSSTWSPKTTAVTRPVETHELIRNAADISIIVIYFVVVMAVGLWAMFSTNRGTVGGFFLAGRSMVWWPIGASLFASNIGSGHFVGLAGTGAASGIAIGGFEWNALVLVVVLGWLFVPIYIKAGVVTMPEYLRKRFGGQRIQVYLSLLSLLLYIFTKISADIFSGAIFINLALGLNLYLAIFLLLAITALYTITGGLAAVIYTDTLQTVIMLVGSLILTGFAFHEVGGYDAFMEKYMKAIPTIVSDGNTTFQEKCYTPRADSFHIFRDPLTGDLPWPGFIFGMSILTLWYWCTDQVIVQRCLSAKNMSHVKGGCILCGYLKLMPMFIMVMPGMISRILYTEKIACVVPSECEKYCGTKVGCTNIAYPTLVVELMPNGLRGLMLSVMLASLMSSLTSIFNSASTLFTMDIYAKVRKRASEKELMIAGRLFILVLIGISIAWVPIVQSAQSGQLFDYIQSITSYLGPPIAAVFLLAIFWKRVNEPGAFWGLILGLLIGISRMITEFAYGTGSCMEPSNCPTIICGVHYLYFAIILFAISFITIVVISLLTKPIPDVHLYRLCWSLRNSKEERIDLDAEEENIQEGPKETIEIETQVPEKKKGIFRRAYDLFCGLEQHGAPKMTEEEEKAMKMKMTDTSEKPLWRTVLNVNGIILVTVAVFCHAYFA
Experimental: as §1, §2, §3, §4

Chain of SGLT2 (P31639 whole entry, species assumed): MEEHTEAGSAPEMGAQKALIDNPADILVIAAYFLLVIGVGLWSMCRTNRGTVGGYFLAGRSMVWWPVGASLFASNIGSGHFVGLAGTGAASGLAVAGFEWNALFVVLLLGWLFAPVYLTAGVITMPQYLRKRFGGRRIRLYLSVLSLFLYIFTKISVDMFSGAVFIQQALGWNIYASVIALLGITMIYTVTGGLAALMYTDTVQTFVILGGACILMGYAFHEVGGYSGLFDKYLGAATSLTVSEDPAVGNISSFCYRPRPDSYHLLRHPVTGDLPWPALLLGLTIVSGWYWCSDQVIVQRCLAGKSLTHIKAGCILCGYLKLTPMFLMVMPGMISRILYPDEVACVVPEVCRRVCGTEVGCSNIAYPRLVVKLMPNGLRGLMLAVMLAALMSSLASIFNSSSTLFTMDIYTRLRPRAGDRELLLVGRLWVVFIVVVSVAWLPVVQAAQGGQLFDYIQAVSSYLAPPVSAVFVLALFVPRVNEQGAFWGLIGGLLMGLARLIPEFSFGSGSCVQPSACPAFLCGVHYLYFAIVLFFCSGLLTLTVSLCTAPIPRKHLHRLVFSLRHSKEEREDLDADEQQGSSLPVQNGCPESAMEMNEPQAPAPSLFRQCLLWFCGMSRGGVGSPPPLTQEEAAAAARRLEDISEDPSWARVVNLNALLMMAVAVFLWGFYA

| Structure (SMILES) | IC50 (SGLT2) | IC50 (SGLT1) | inhibition of SGLT1 (conclusion in words) (SGLT1) |
| --- | --- | --- | --- |
| OC[C@@]12CO[C@@](c3ccc(Cl)c(Cc4ccc5c(c4)OCCO5)c3)(O1)[C@H](O)[C@@H](O)[C@@H]2O [Example 1, (1S,2S,3S,4R,5S)-5-(4-chloro-3-((2,3-dihydrobenzo[b][1,4]dioxin-6-yl)methyl)phenyl)-1-(hydroxymethyl)-6,8-dioxabicyclo[3.2.1]octane-2,3,4-triol] | 0.58 nM | 953 nM | – |
| OC[C@@]12CO[C@@](c3ccc(C4CC4)c(Cc4ccc5c(c4)OCCO5)c3)(O1)[C@H](O)[C@@H](O)[C@@H]2O [Example 2, (1S,2S,3S,4R,5S)-5-(4-cyclopropyl-3-((2,3-dihydrobenzo[b][1,4]dioxin-6-yl)methyl)phenyl)-1-(hydroxymethyl)-6,8-dioxabicyclo[3.2.1]octane-2,3,4-triol] | 3.67 nM | 15.7 nM | inhibited SGLT1 |
| OC[C@H]1S[C@@H](c2cc3c(c(Cc4ccc5c(c4)OCCO5)c2)OCC3)[C@H](O)[C@@H](O)[C@@H]1O [Example 3, (2S,3R,4R,5S,6R)-2-(7-((2,3-dihydrobenzo[b][1,4]dioxin-6-yl)methyl)-2,3-dihydrobenzofuran-5-yl)-6-(hydroxymethyl)tetrahydro-2H-thiopyran-3,4,5-triol] | 19.8 nM | 2560 nM | – |
| Cc1ccc([C@@H]2S[C@H](CO)[C@@H](O)[C@H](O)[C@H]2O)cc1Cc1ccc2c(c1)OCCO2 [Example 4, (2S,3R,4R,5S,6R)-2-(3-((2,3-dihydrobenzo[b][1,4]dioxin-6-yl)methyl)-4-methylphenyl)-6-(hydroxymethyl)tetrahydro-2H-thiopyran-3,4,5-triol] | 132 nM | 89 nM | inhibited SGLT1 |
| CCCc1ccc([C@]23OC[C@](CO)(O2)[C@@H](O)[C@H](O)[C@H]3O)cc1Cc1ccc2c(c1)OCCO2 [Example 7, (1S,2S,3S,4R,5S)-5-(3-((2,3-dihydrobenzo[b][1,4]dioxin-6-yl)methyl)-4-propylphenyl)-1-(hydroxymethyl)-6,8-dioxabicyclo[3.2.1]octane-2,3,4-triol] | 1.82 nM | 17.2 nM | inhibited SGLT1 |
| Cc1ccc([C@]23OC[C@](CO)(O2)[C@@H](O)[C@H](O)[C@H]3O)cc1Cc1ccc2c(c1)OCCO2 [Example 8, (1S,2S,3S,4R,5S)-5-(3-((2,3-dihydrobenzo[b][1,4]dioxin-6-yl)methyl)-4-methylphenyl)-1-(hydroxymethyl)-6,8-dioxabicyclo[3.2.1]octane-2,3,4-triol] | 583 nM | 1.21 nM | – |
| CCc1ccc([C@]23OC[C@](CO)(O2)[C@@H](O)[C@H](O)[C@H]3O)cc1Cc1ccc2c(c1)OCCO2 [Example 9, (1S,2S,3S,4R,5S)-5-(3-((2,3-dihydrobenzo[b][1,4]dioxin-6-yl)methyl)-4-ethylphenyl)-1-(hydroxymethyl)-6,8-dioxabicyclo[3.2.1]octane-2,3,4-triol] | 1.49 nM | 16.6 nM | inhibited SGLT1 |
